Assay results from patent US11926611B1, “2-(2-ethoxyethoxy)-6-phenyl-4,4′-bipyridine-3-carbonitrile as an antimicrobial compound” (KING FAISAL UNIVERSITY, priority 2023, dated 2024).

Assays:
Staphylococcus aureus = assay: Antimicrobial screening by agar dilution, Staphylococcus aureus; format: cell-based; settings: after 10, 20, 40 and 60 minutes at all dilutions 1:100, 1:200, 1:400, 1:800
Procedure: (§1) The antibacterial properties of the synthesized compound 2-(2-ethoxyethoxy)-6-phenyl-4,4′-bipyridine-3-carbonitrile were studied by the method of agar dilution. Test solutions of each compound was prepared in concentration of 1% using dimethylformamide as a solvent then they are diluted in physiological solution to obtain the final experimental dilutions 1:100, 1:200, 1:400, 1:800. The effect of these substances are compared with furacillin in a controllable study. The testing microbes used were gram positive bacteria Staphylococcus aureus, gram negative bacteria Pseudomonas aeruginosa and Escherichia coli and Candida albicans fungus. The experiments used for this survey were meat-pentonlu agar (EPA) for cultivation of bacteria and Saburo environment for the fungus. Each experiment used 1 mL of test solution on each plate […]. Two drops of emulsified with microbes feel were added. All experimental samples were taken from the agar after 10, 20, 40, 60 minutes in the environment on the basis of Patrk planted. The bacteria were cultivated at a temperature of 37° C. for 1 day and the mushroom was kept in a thermostat for […] at a temperature of 28° C. Then results were checked.

Escherichia coli = assay: Antimicrobial screening by agar dilution, Escherichia coli; format: cell-based; settings: after 10, 20, 40 and 60 minutes at all dilutions 1:100, 1:200, 1:400, 1:800
Procedure: as §1

Pseudomonas aeruginosa = assay: Antimicrobial screening by agar dilution, Pseudomonas aeruginosa; format: cell-based; settings: after 10, 20, 40 and 60 minutes at all dilutions 1:100, 1:200, 1:400, 1:800
Procedure: as §1

Candida albicans = assay: Antimicrobial screening by agar dilution, Candida albicans; format: cell-based; settings: after 10, 20, 40 and 60 minutes at all dilutions 1:100, 1:200, 1:400, 1:800
Procedure: as §1

## CCOCCOc1nc(-c2ccccc2)cc(-c2ccncc2)c1C#N [2-(2-ethoxyethoxy)-6-phenyl-4,4′-bipyridine-3-carbonitrile]
Staphylococcus aureus
  inhibition activity (in words): highest inhibition activity
Escherichia coli
  inhibition activity (in words): highest inhibition activity
other
  melting point: 241 to 243 °C
Pseudomonas aeruginosa
  inhibition activity (in words): highest inhibition activity
Candida albicans
  inhibition activity (in words): highest inhibition activity
